# Measured values as given in patent publication US20220041583A1, “IMMUNOMODULATORS, COMPOSITIONS AND METHODS THERE OF” (BETTA PHARMACEUTICALS CO., LTD, priority 2018, published 2022).
# System: not listed separately
# Assay: Pharmacokinetic Assay
# Type: in vivo
# Settings: rat; male rats, single oral (intragastric) dose 25 mg/kg, plasma
# Description: Healthy adult male rats were subjected to single-dose of the test compounds with 10% DMSO, 10% Kolliphor® HS 15 and 80% Saline as excipients, and the rats were giving oral administration (intragastric administration) with the compounds at a dose of 25 mg/kg, Before the experiment, the animals were fasted overnight, and the fasting time last from 12 hrs prior to the administration to 4 hrs after the administration. Time of blood collection: 15 min, 30 min, 1 h, 2 h, 4 h, 7 h, 24 h. Approximately 0.3 mL of whole blood was collected from retro-orbital venous sinus, and placed into tubes that contained EDTA as an anticoagulant. The samples were centrifuged at 4° C. and 4000 rpm for 5 min. The plasma was transferred into centrifuge tubes, and stored at −20° C. till being analyzed. Concentrations of test compounds in the plasma samples were analyzed with liquid chromatography-tandem mass spectrometry (LC-MS/MS). Plasma concentration-time data of individual animals was analyzed using WinNonlin (version 4.1; Pharsight) software. Non-compartmental model was introduced in concentration analysis. The pharmacokinetic parameters of the test compounds were calculated.
SMILES,AUC,Cmax,Tmax,half-life
"Cc1c(-c2ccccc2)cccc1-c1nc2cc(CN3CCCC[C@H]3C(=O)O)c(OCC#N)cc2o1 [Com. EX. No. 1, 1-((6-(cyanomethoxy)-2-(2-methyl-[1,1′-biphenyl]-3-yl)benzo[d]oxazol-5-yl)methyl)piperidine-2-carboxylic acid, reference compound]",5840 ng·h/mL,881 ng/mL,0.5 h,3.42 h
"COc1cc2oc(-c3cccc(-c4ccccc4)c3C)nc2cc1CNCCO [Com. EX. No. 2, 2-(((6-methoxy-2-(2-methyl-[1,1′-biphenyl]-3-yl)benzo[d]oxazol-5-yl)methyl)amino)ethan-1-ol, reference compound]",5150 ng·h/mL,329 ng/mL,4 h,14.4 h
"CSc1cc2oc(-c3cccc(-c4ccccc4)c3C)nc2cc1CN1CCC[C@H]1C(=O)O [Example 2, ((2-(2-methyl-[1,1′-biphenyl]-3-yl)-6-(methylthio)benzo[d]oxazol-5-yl)methyl)-L-proline]",125000 ng·h/mL,12200 ng/mL,1 h,17.7 h

# Target: T1, PD-1/PD-L1 (Homo sapiens, UniProt Q9NZQ7)
# T1 construct: Recombinant human PD-L1 protein (19-238) with a His-tag at the C-terminus; purchased AcroBiosystems PD1-H5229 (PD-L1); PD1-H5257 (PD-1)
# Assay: PD-1/PD-L1 homogenous time-resolved fluorescence (HTRF) binding assay
# Settings: Table 6, class symbols
# Description: Resolved Fluorescence (HTRF) Binding Assay
# The assays were conducted in a standard black 384-well polystyrene plate with a final volume of 20 μL. Inhibitors were first serially diluted in DMSO and then added to the plate wells before the addition of other reaction components. The final concentration of DMSO in the assay was 1%. The assays were carried out at 25° C. in the PBS buffer (pH 7.4) with 0.05% Tween-20 and 0.1% BSA. Recombinant human PD-L1 protein (19-238) with a His-tag at the C-terminus was purchased from AcroBiosy stems (PD1-H5229). Recombinant human PD-1 protein (25-167) with Fc tag at the C-terminus was also purchased from AcroBiosystems (PD1-H5257). PD-L1 and PD-1 proteins were diluted in the assay buffer and 10 μL was added to the plate well. Plates were centrifuged and proteins were preincubated with inhibitors for 40 min. The incubation was followed by the addition of 10 μL of HTRF detection buffer supplemented with Europium cryptate-labeled anti-human IgG (PerkinElmer-AD0212) specific for Fc and anti-His antibody conjugated to SureLight®-Allophycocyanin (APC, PerkinElmer-AD0059H). After centrifugation, the plate was incubated at 25° C. for 60 min. Before reading on a PHERAstar FS plate reader (665 nm/620 nm ratio). Final concentrations in the assay were […] PD1, 10 nM PD-L1, 1 nM europium anti-human IgG and 20 nM anti-His-Allophycocyanin. IC50 determination was performed by fitting the curve of percent control activity versus the log of the inhibitor concentration using the GraphPad Prism 5.0 software.
# T1 sequence (Q9NZQ7 19-238): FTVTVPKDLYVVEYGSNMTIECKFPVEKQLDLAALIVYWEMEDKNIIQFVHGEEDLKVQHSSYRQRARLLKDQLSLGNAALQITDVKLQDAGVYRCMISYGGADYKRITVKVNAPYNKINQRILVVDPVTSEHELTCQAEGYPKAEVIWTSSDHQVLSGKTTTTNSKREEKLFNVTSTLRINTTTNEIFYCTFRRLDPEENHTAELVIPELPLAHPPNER
row,SMILES,IC50
1,"CSc1cc2oc(-c3cccc(-c4ccccc4)c3C)nc2cc1CN1CCC[C@H]1C(=O)O [Example 2, ((2-(2-methyl-[1,1′-biphenyl]-3-yl)-6-(methylthio)benzo[d]oxazol-5-yl)methyl)-L-proline]",0.1 to 10 nM
2,"Cc1c(-c2ccccc2)cccc1-c1nc2cc(CN3CCC3C(=O)O)c(OC(F)F)cc2o1 (stereo not drawn) [Example 48, 1-((6-(difluoromethoxy)-2-(2-methyl-[1,1′-biphenyl]-3-yl)benzo[d]oxazol-5-yl)methyl)azetidine-2-carboxylic acid]",0.1 to 10 nM
3,"Cc1c(-c2ccccc2)cccc1-c1nc2cc(CN3CCCC3(C)C(=O)O)c(OC(F)F)cc2o1 (stereo not drawn) [Example 50, 1-((6-(difluoromethoxy)-2-(2-methyl-[1,1′-biphenyl]-3-yl)benzo[d]oxazol-5-yl)methyl)-2-methylpyrrolidine-2-carboxylic acid]",0.1 to 10 nM
4,"Cc1c(-c2ccccc2)cccc1-c1nc2cc(CN3CCCC[C@H]3C(=O)O)c(OCC(F)(F)F)cc2o1 [Example 54, (S)-1-((2-(2-methyl-[1,1′-biphenyl]-3-yl)-6-(2,2,2-trifluoroethoxy)benzo[d]oxazol-5-yl)methyl)piperidine-2-carboxylic acid]",10 to 100 nM
5,"Cc1c(-c2ccccc2)cccc1-c1nc2cc(CN3CCCCC3C(=O)O)c(OCC(F)F)cc2o1 (stereo not drawn) [Example 55, 1-((6-(2,2-difluoroethoxy)-2-(2-methyl-[1,1′-biphenyl]-3-yl)benzo[d]oxazol-5-yl)methyl)piperidine-2-carboxylic acid]",10 to 100 nM
6,"Cc1c(-c2ccccc2)cccc1-c1nc2cc(CN[C@H](C)C(=O)O)c(OCC(F)(F)F)cc2o1 [Example 56, ((2-(2-methyl-[1,1′-biphenyl]-3-yl)-6-(2,2,2-trifluoroethoxy)benzo[d]oxazol-5-yl)methyl)-D-alanine]",10 to 100 nM
7,"Cc1c(-c2ccccc2)cccc1-c1nc2cc(CN3CCOC[C@H]3C(=O)O)c(OCC(F)(F)F)cc2o1 [Example 58, (S)-4-((2-(2-methyl-[1,1′-biphenyl]-3-yl)-6-(2,2,2-trifluoroethoxy)benzo[d]oxazol-5-yl)methyl)morpholine-3-carboxylic acid]",10 to 100 nM
8,"Cc1c(-c2ccccc2)cccc1-c1nc2cc(CN[C@@H](C)C(=O)O)c(OCC(F)(F)F)cc2o1 [Example 59, ((2-(2-methyl-[1,1′-biphenyl]-3-yl)-6-(2,2,2-trifluoroethoxy)benzo[d]oxazol-5-yl)methyl)-L-alanine]",10 to 100 nM
9,"Cc1c(-c2ccccc2)cccc1-c1nc2cc(CN3CCCC3(C)C(=O)O)c(OCC(F)(F)F)cc2o1 (stereo not drawn) [Example 61, 2-methyl-1-((2-(2-methyl-[1,1′-biphenyl]-3-yl)-6-(2,2,2-trifluoroethoxy)benzo[d]oxazol-5-yl)methyl)pyrrolidine-2-carboxylic acid]",10 to 100 nM
10,"Cc1c(-c2ccccc2)cccc1-c1nc2cc(CN3CCC[C@H]3C(=O)O)c(OC(F)(F)F)cc2o1 [Example 63, ((2-(2-methyl-[1,1′-biphenyl]-3-yl)-6-(trifluoromethoxy)benzo[d]oxazol-5-yl)methyl)-L-proline]",0.1 to 10 nM
11,"Cc1c(-c2ccccc2)cccc1-c1nc2cc(CN3CCC[C@H]3C(=O)O)c(OS(C)(=O)=O)cc2o1 [Example 64, ((2-(2-methyl-[1,1′-biphenyl]-3-yl)-6-((methylsulfonyl)oxy)benzo[d]oxazol-5-yl)methyl)-L-proline]",0.1 to 10 nM
12,"Cc1c(-c2ccccc2)cccc1-c1nc2cc3c(cc2o1)OCCN(C)C3 [Example 67, 8-methyl-2-(2-methyl-[1,1′-biphenyl]-3-yl)-6,7,8,9-tetrahydrooxazolo[5′,4′:4,5]benzo[1,2-f][1,4]oxazepine]",100 to 1000 nM

# Next, values leading:
row,IC50,SMILES
1,10 to 100 nM,"Cc1c(-c2nc3cc(CN4CCC[C@H]4C(=O)O)c(OC(F)F)cc3o2)cccc1-c1ccccc1C#N [Example 51, ((2-(2′-cyano-2-methyl-[1,1′-biphenyl]-3-yl)-6-(difluoromethoxy)benzo[d]oxazol-5-yl)methyl)proline]"
2,10 to 100 nM,"Cc1c(-c2ccccc2)cccc1-c1nc2cc(CN3COC[C@H]3C(=O)O)c(OC(F)F)cc2o1 [Example 53, (S)-3-((6-(difluoromethoxy)-2-(2-methyl-[1,1′-biphenyl]-3-yl)benzo[d]oxazol-5-yl)methyl)oxazolidine-4-carboxylic acid]"
3,10 to 100 nM,"N#Cc1c(-c2ccccc2)cccc1-c1nc2cc(CN3CCOC[C@H]3C(=O)O)c(OCC(F)(F)F)cc2o1 [Example 57, (S)-4-((2-(2-cyano-[1,1′-biphenyl]-3-yl)-6-(2,2,2-trifluoroethoxy)benzo[d]oxazol-5-yl)methyl)morpholine-3-carboxylic acid]"
4,10 to 100 nM,"Cc1c(-c2ccccc2)cccc1-c1nc2cc(CN3CCC[C@H]3C(=O)O)c(OCC(F)(F)F)cc2o1 [Example 60, ((2-(2-methyl-[1,1′-biphenyl]-3-yl)-6-(2,2,2-trifluoroethoxy)benzo[d]oxazol-5-yl)methyl)-L-proline]"
5,0.1 to 10 nM,"Cc1c(-c2ccccc2)cccc1-c1nc2cc(CN3CCC[C@H]3C(=O)O)c(S(C)(=O)=O)cc2o1 [Example 66, ((2-(2-methyl-[1,1′-biphenyl]-3-yl)-6-(methylsulfonyl)benzo[d]oxazol-5-yl)methyl)-L-proline]"
6,100 to 1000 nM,"Cc1c(-c2ccccc2)cccc1-c1nc2cc(CN3CCCCC3C(=O)O)c3c(c2o1)C(=O)CO3 (stereo not drawn) [Example 68, 1-((2-(2-methyl-[1,1′-biphenyl]-3-yl)-8-oxo-7,8-dihydrobenzofuro[5,4-d]oxazol-5-yl)methyl)piperidine-2-carboxylic acid]"
7,100 to 1000 nM,"Cc1c(-c2ccccc2)cccc1-c1nc2cc(CN3CCCCC3C(=O)O)n3ncnc3c2o1 (stereo not drawn) [Example 69, 1-((8-(2-methyl-[1,1′-biphenyl]-3-yl)oxazolo[5,4-c][1,2,4]triazolo[1,5-a]pyridin-5-yl)methyl)piperidine-2-carboxylic acid]"
8,100 to 1000 nM,"Cc1c(-c2ccccc2)cccc1-c1nc2cc3c(cc2o1)OC[C@@H](C(=O)O)NC3 [Example 70, (S)-2-(2-methyl-[1,1′-biphenyl]-3-yl)-6,7,8,9-tetrahydrooxazolo[5′,4′:4,5]benzo[1,2-f][1,4]oxazepine-7-carboxylic acid]"
9,100 to 1000 nM,"Cc1c(-c2ccccc2)cccc1-c1nc2cc3c(cc2o1)OCCN(CC(=O)O)C3 [Example 71, 2-(2-(2-methyl-[1,1′-biphenyl]-3-yl)-6,7-dihydrooxazolo[5′,4′:4,5]benzo[1,2-f][1,4]oxazepin-8(9H)-yl)acetic acid]"
10,100 to 1000 nM,"Cc1c(-c2ccccc2)cccc1-c1nc2cc3c(cc2o1)OC[C@H](C(=O)O)NC3 [Example 72, (R)-2-(2-methyl-[1,1′-biphenyl]-3-yl)-6,7,8,9-tetrahydrooxazolo[5′,4′:4,5]benzo[1,2-f][1,4]oxazepine-7-carboxylic acid]"
11,100 to 1000 nM,"Cc1c(-c2ccccc2)cccc1-c1nc2cc(CN3CCCCC3C(=O)O)c3c(c2o1)C(=O)CO3 (stereo not drawn) [Example 73, 1-((2-(2-methyl-[1,1′-biphenyl]-3-yl)-8-oxo-7,8-dihydrobenzofuro[5,4-d]oxazol-5-yl)methyl)piperidine-2-carboxylic acid]"

# Same assay, conditions: Table 6, numeric values
row,SMILES,IC50
1,"Cc1c(-c2ccccc2)cccc1-c1nc2cc(CN3CCC[C@H]3C(=O)O)c([S+](C)[O-])cc2o1 (stereo partly drawn) [Example 65, ((2-(2-methyl-[1,1′-biphenyl]-3-yl)-6-(methylsulfinyl)benzo[d]oxazol-5-yl)methyl)-L-proline]",5 nM
